Test results as given in US20250213614A1, “Modified RELA Protein for Inducing Interferon Expression and Engineered Immune Cells with Improved Interferon Expression” (Institut Curie, priority 2022, published 2025).

B1: IRF3: interferon Regulatory Factor 3, over-expressed from lentivector (protein, UniProt Q14653 1-427, looked up)
Interferon regulatory factor 3: MGTPKPRILPWLVSQLDLGQLEGVAWVNKSRTRFRIPWKHGLRQDAQQEDFGIFQAWAEATGAYVPGRDKPDLPTWKRNFRSALNRKEGLRLAEDRSKDPHDPHKIYEFVNSGVGDFSQPDTSPDTNGGGSTSDTQEDILDELLGNMVLAPLPDPGPPSLAVAPEPCPQPLRSPSLDNPTPFPNLGPSENPLKRLLVPGEEWEFEVTAFYRGRQVFQQTISCPEGLRLVGSEVGDRTLPGWPVTLPDPGMSLTDRGVMSYVRHVLSCLGGGLALWRAGQWLWAQRLGHCHTYWAVSEELLPNSGHGPDGEVPKDKEGGVFDLGPFIVDLITFTEGSGRSPRYALWFCVGESWPQDQPWTKRLVMVKVVPTCLRALVEMARVGGASSLENTVDLHISNSHPLSLTSDQYKAYLQDLVEGMDFQGPGES

Tests used:
[1] = system: STING, TBK1, IRF3, RELA, IRF7; experiment: Western blot of key signaling proteins involved in STING signaling; type: cell-based, human
Method: 0.5 million cells were lysed for 30 minutes on ice in 50 μl RIPA buffer (50 mM Tris HCl, 150 mM NaCl, 0.1% SDS, 0.5% DOC, 1% NP-40) with Protease inhibitor (Roche #1187358001). To evaluate, phospho-proteins 50 mM NaF and 1 mM sodium orthovanadate were added to the lysis buffer. Protein lysates were cleared by centrifugation at 12,000 g for 10 to 12 minutes at 4° C. 10 μl of 6× Laemmli buffer (fisher scientific #J61337) was added to 50 μl protein lysates and samples were boiled at 95° C. for 15 minutes. Protein samples were resolved on 4%-20% Biorad precast SDS-PAGE gels (#5671125) and transferred onto PVDF membranes (BioRad #1704157). Membranes were blocked in 5% non-fat dry milk in PBS 0.1% tween or in TBS 5% BSA 0.1% Tween to detect phosphorylated proteins. Primary antibodies were used at 1:1000:phospho-STING (clone-D7C3S), STING (clone-D2P2F), serine 172 phospho-TBK1 (clone-D52C2), TBK1 (clone-D11B4), serine 396 phospho IRF3 (clone-D6O1M), IRF3 (clone-D83B9), RELA (clone-C22B4), IRF7 (clone-12G9A36), cGAS (clone-D1 D3G), Actin (clone-C4), Sendai viral proteins (Biozol #MBL-PD029). Secondary anti-rabbit or anti-mouse antibody were used at 1:10,000 (santa cruz #sc-2357, #sc-516102). ECL signal (Biorad #1705061 and #1705062) was recorded on a ChemiDoc Touch Biorad Imager. Data was analyzed and quantified with Image Lab software (Biorad). In figures, dotted lines indicate reordering of lanes from a single original membrane for visualization purpose.

CD4+ T cells = experiment: IFN-I/III quantification (LEGENDplex) in CD4+ T cells, baseline or after STING stimulation; type: cell-based, human
Method: Plasmapheresis blood pockets were obtained from healthy adult volunteers after informed consent from the EFS (Establishment of French blood collection). Peripheral blood mononuclear cells (PBMCs) were isolated using Ficoll-Paque Plus (GE-17144003) and left overnight at 4° C. in RPMI (Thermo fischer #61870-010) with 10% heat-decomplemented fetal bovine serum (FBS, Eurobio #CVFSVFO0-01). CD14+ cells were enriched by positive selection (Miltenyi #130-050-201), the CD14 negative fraction was subsequently used to isolate total CD4+ T cells by negative selection (Stem Cell #17952). CD14+ cells were cultured in RPMI containing 10% FBS, 5% Penicillin-Streptomycin (PS, Thermo Fisher #10378-016), 50 μg/ml Gentamicin (Thermo Fisher #15750-045) and 10 mM HEPES (Thermo Fisher #15630-056). CD14+ cells were differentiated ex vivo into MDDC by supplementing the culture media with 50 ng/ml IL-4 (Miltenyi #130-093-922) and 10 ng/ml GM-CSF (Miltenyi #130-093-867). MDDC were used for experiments 3 or 4 days following the start of the culture. CD14+ cells were differentiated ex vivo into macrophages by adding 50 ng/ml MCSF (Miltenyi #130-096-492) to the culture media containing RPMI with 1% PS, 5% FBS and 5% human serum (Sigma #H4522). MDM were used 7 days following culture. Freshly isolated CD4+ T cells were cultured in X-VIVO 15 (Lonza #BE02-060F) and activated using anti-CD3 and anti-CD28 Dynabeads (fisher scientific #10548353) at the ratio of 1:5 (bead:cell). 100 U/ml human IL-2 (Immunotools #11340027) was added to cultures 2 days following TCR stimulation and media with IL-2 was replenished every 48 hours. To assess proliferation, freshly isolated CD4+ T cells were stained with cell proliferation dye (thermo fischer #65-0840-85) prior to TCR stimulation.
CD14+ cells were plated at 1 million cells/ml and transduced with equal volumes of freshly harvested SIV-VLPs and pTRIP-SFFV vectors in the presence of 8 μg/ml protamine (Sigma #P4020). CD4+ T cells were transduced with lentivectors 24 hours post-TCR stimulation in 100 μl of cells (0.2 million cells) and 100 μl of freshly harvested lentivirus in the presence of 8 μg/ml protamine. T cells were spinoculated at 1200 g for 2 hours at 25° C. 0.5 million THP-1 cells in 500 μl media (RPMI 10% FBS 1% PS) were transduced with 500 μl freshly harvested lentivirus in the presence of 8 μg/ml protamine. 1 μg/ml Puromycin (Invivogen #ant-pr-1) was added 2 days post-transduction when cells were transduced with pLKO.1-puro plasmid.
For stimulation of STING by extracellular ligands, 2.5 μg of ADUS100 (invivogen #tlrl-nacda2r-01) or 2′3′-cGAMP (cGAMP, invivogen #tlrl-nacga23-02) was added to 100,000 cells in 100 μl media either on freshly isolated primary cells or 3-4 days post differentiation for MDDC and 3 days post-TCR stimulation for CD4+ T cells. Cells and supernatant were harvested 18-24 hours post stimulation. For delivery of STING ligands after permeabilization, T cells were used 3 or 4 days post TCR stimulation and MDDC were used 3-4 days following differentiation. 150,000 cells were plated in round bottom 96-well plate. Media was removed by centrifugation and 20 μl 2× permeabilization buffer (100 mM HEPES, 200 mM KCl, 6 mM MgCl2, 0.2 mM DTT, 170 mM Sucrose, 2 mM ATP, 2 mM GTP, 0.4% bovine serum albumin (BSA), 20 μg/ml digitonin) and 20 μl cGAMP (12 μg/ml) was added to cells. 18 to 20 hours following stimulation supernatants and cells were harvested. Cells were stained with a fixable viability dye (Invitrogen #65-0865-14) and acquired on a FACSVerse (BD). […]
Where indicated, cells were treated with 5-Azacytidine (5AZA, Sigma #A2385) 48 hours prior to cGAMP stimulation. Fresh 5AZA was added daily to cells, and media was replenished with 5AZA following cGAMP stimulation. 100 nM Trichostatin A (TSA) (sigma #T1952) was added to cells following cGAMP stimulation and left overnight. […]

| Molecule | endogenous RELA expression ([1]; overexpression in CD4+ T cells and MDDC, FIG. 2C) | expression of IFNλ1 and IRF7 (CD4+ T cells; RELA K5R expressed in CD4+ T cells, no stimulation) | IFNλ1 after cGAMP stimulation (CD4+ T cells; lentivector overexpression in CD4+ T cells, FIG. 2B, 2D, 2F) | IFNα2 in response to cGAMP (CD4+ T cells; lentivector overexpression in CD4+ T cells, FIG. 2D, 2F) | baseline IFNλ1 expression (CD4+ T cells; lentivector overexpression in CD4+ T cells, no cGAMP, FIG. 2D, 2F) | phospho-IRF3 levels in response to cGAMP ([1]; IRF3 over-expression, equivalent in CD4+ T cells and MDDC, FIG. 3C) | IFNα2 response to cGAMP (CD4+ T cells; IRF3 over-expression alone in CD4+ T cells, FIG. 3B) | IFNβ (CD4+ T cells; IRF3 over-expression alone in CD4+ T cells, cGAMP, FIG. 3B) |
| --- | --- | --- | --- | --- | --- | --- | --- | --- |
| RELA K5R: RELA mutant converting five lysine residues (K122, K123, K310, K314, K315) to arginine, expressed from lentivector | no impact | sufficient to induce | augmented in response to cGAMP | detectable | increased baseline IFNλ1 expression | – | – | – |
| B1 | – | – | – | – | – | massive increase | only to a small extent | remained undetectable |
